Test results taken from patent EP0773287A1, “Immortalised embryonic hyppocampal cells and their use” (BAYER AG, priority 1995, dated 1997).

What was measured:
Format in all cases: cell-based, murine
[1] = test system: metabotropic glutamate receptor(s) (mGluR) expressed by HNMMCV14.1A cells; assay: Phosphoinositide hydrolysis: accumulation of 3H-inositol phosphates; settings: HNMMCV14.1A cells; agonist 1 h, LiCl 10 mM; read-out: EC50 inositolphosphate accumulation
Procedure: Phosphoinositide hydrolysis was determined by measuring the accumulation of ^3H-inositol phosphates. The cells were plated in 48-well plates (Costar) at a density of 10000 cells per well and incubated for 4-5 days at 37°C, 7% CO2. Then the cells were labeled by incubation with 4 µCi of myo-2-^3H-inositol per ml medium (specific activity: […]: Amersham). After 24 h LiCl (10 mM final concentration) was added to the cells for 1 h. Agonists were then added at the concentrations indicated. The incubation was stopped after 1 h by replacing the medium with 200 µl ice-cold methanol. 400 µl of destilled water was added and the sample was directly applied to AG-1X8 ion exchange columns (AG-1X8 resin: BioRad). Free inositol and glycerophosphoryl-inositol were washed away with 16 ml destilled water followed by 10 ml 5 mM disodium-tetraborate, 60 mM sodium formate. Total ^3H-inositol phosphates (IP1, IP2, IP3) were eluted with 7 ml of 100 mM formic acid, 1 M ammonium formate. Radioactivity of the eluted ^3H-inositol phosphates was determined by liquid scintillation counting after addition of 13 ml liquid scintillation cocktail (Ultima Gold: Canberra Packard). Measurements were performed in triplicates for each experimental point. Untreated controls were set as 100% and the other values calculated in relation to this.
The columns were prepared as follows: 1 ml pipet tips were filled with one glass bead (Roth) per tip before adding 500 µl AG-1X8 resin. The resin was compressed with air and 270 µl seasand was applied. Until use they were stored at 4°C.

HNMMCV13.1.E = assay: Whole-cell patch-clamp recording of ligand-activated currents; settings: 13.1.E; membrane potential clamped to -70mV
Procedure: (§1) Electrophysiological setup: Membrane currents were measured with the patchclamp technique in the whole-cell recording configuration (Hamill et al. 1981, Pfluegers Arch. 391:85-100). Current signals were amplified with conventional electronics (EPC-9 amplifier, HEKA Elektronik GmbH, Lambrecht, Germany), filtered at 10kHz, and sampled at 5 kHz by an interface connected to an IBM AT-compatible computer system, which also served as a stimulus generator.
(§2) Solutions and electrodes: The standard bathing solution contained (in mM): Nacl 150, KCL 5, MgCl2 1.8, HEPES 5, and glucose 10. In some experiments an equimolar amount of NaCl was replaced by 5mM BaCl2. Recording pipettes had resistances about 5MΩ (Hilgenberg, Malsfeld, Germany). The pipettes contained (in mM): KCL 140, CaCl2 0.5, EGTA 5, MgCl2 2, and HEPES 10. The pH was adjusted to 7.4. In some experiments the pipette solution was designed to minimize the contribution of voltage-activated currents. In this case, investigating the ligand-activated currents, the pipette solution contained (in mM): CsCl 140, EGTA 10, and HEPES 10.
(§3) Ligands were dissolved in the extracellular saline solution and applied via an U-tube application system. To record ligand-induced currents, the membrane potential was clamped to -70mV. For measurements of voltage-activated currents, cells were held at -70mV and every second the membrane was stepped through a 50 msec. de- or hyperpolarising test pulse to a potential between -170 and +20 mV.

HC e/n XVB cells = assay: as above; settings: membrane potential clamped to -70mV
Procedure: as §1, §2, §3

[2] = test system: v-myc-expressing lines and clones; assay: Induction of differentiation of immortalised cell lines and clones; settings: 1mM
Procedure: For experiments in the presence of growth factors or other differentiation inducing agents, the primary cell cultures or the immortalised cell lines were cultured in the presence of one or a combination of the following: β-FGF, 1ng/ml, (Collaborative Research), EGF; 5 ng/ml or 10 ng/ml, (Collaborative Research), NGF (10 ng/ml, Collaborative Reasearch), dibutyryl cyclic adenosine monophosphate (dbcAMP, 1mM, Sigma, Heidelberg), retinoic acid (5 µM; Sigma), IL-7 (50 U/ml), TGFα (5ng/ml).
To induce differentiation in vitro several combinations of the following factors were used: retinoic acid (RA, 10 µM), NGF, β-FGF, EGF, IL-7, TGFα, dbcAMP (1mM). In addition the effect of co-culture with cortical glial cells originating from postnatal day 0 to 1 and granule neurons originating from postnatal day 6 mice was investigated.

SMILES: N[C@@H](CCC(=O)O)C(=O)O [Glutamate, L-glutamate]
- EC50 [1]: 50 µM
- ligand-activated currents (electrophysiological recordings) (HNMMCV13.1.E): + (+: 10-30% positive cells)
- ligand-activated currents (electrophysiological recordings) (HC e/n XVB cells; XV. B/ - EGF): ++ (++: 30-70% positive cells)
- ligand-activated currents (electrophysiological recordings) (HC e/n XVB cells; XV. B): -

SMILES: CCCC(=O)Nc1ncnc2c1ncn2[C@@H]1O[C@@H]2COP(=O)(O)O[C@H]2[C@H]1OC(=O)CCC [dbcAMP, dibutyryl cyclic adenosine monophosphate]
- expression of MAP-2 ([2]; cell line HNMMCV11.2.): induction of the expression of MAP-2
- differentiation of the cells (morphology, markers vimentin and nestin) ([2]; v-myc-expressing lines and clones): partial differentiation
